Laboratory results taken from ChEMBL document CHEMBL5584321, “Chemoenzymatic Synthesis of DNP-Functionalized FGFR1-Binding Peptides as Novel Peptidomimetic Immunotherapeutics for Treating Lung Cancer” (J Med Chem, 2024).
Calls of active or inactive are those of the source. The rule behind the calls is not given here. Where a SMILES comes first, the peptide text is derived from it. The star is where a group is joined. X1 = O=[N+]([O-])c1ccc(OCCOCCOCCOCCOCCOCCN*)c([N+](=O)[O-])c1; FITC = O=C1OC2(c3ccc(O)cc3Oc3cc(O)ccc32)c2ccc(NC(=S)*)cc21; X2 = O=[N+]([O-])c1ccc(OCCOCCOCCN*)c([N+](=O)[O-])c1; X3 = O=[N+]([O-])c1ccc(OCCN*)c([N+](=O)[O-])c1; Ahx = NCCCCCC(=O)O

Columns and labels:
[1] = Binding affinity to CM5 sensor chip immobilized human full-length wild type FGFR1c assessed as dissociation constant by SPR analysis
[2] = test system: L6; assay: Antiproliferative activity against FGF2-induced rat L6 cells stably expressing human full-length FGFR1c assessed as inhibition of cell growth incubated for 36 hrs by CCK-8 assay; type: functional, cell-based
[3] = test system: L6; assay: Antiproliferative activity against FGF2-induced rat L6 cells stably expressing human full-length FGFR1c assessed as inhibition of cell growth at 100 uM incubated for 36 hrs by CCK-8 assay relative to control; type: functional
[4] = test system: L6; assay: Induction of apoptosis in FGF2-induced rat L6 cells stably expressing human full-length FGFR1c assessed as downregulation of BCL-2 expression at 50 uM incubated for 24 hrs by Western blotting analysis; type: functional, cell-based
[5] = test system: L6; assay: Induction of apoptosis in FGF2-induced rat L6 cells stably expressing human full-length FGFR1c assessed as upregulation of cleaved caspase-3 expression at 50 uM incubated for 24 hrs by Western blotting analysis; type: functional, cell-based
[6] = test system: L6; assay: Induction of apoptosis in FGF2-induced rat L6 cells stably expressing human full-length FGFR1c assessed as upregulation of cleaved PARP expression at 50 uM incubated for 24 hrs by Western blotting analysis; type: functional, cell-based
[7] = test system: L6; assay: Binding affinity to FGFR1c in rat L6 cells assessed as increase in green fluorescence signal incubated for 1 hr by Alexa-488 staining based confocal fluorescence microscopic analysis; type: cell-based
[8] = test system: L6; assay: Binding affinity to human full-length wild type FGFR1c stably expressed in rat L6 cells assessed as increase in green fluorescence signal incubated for 1 hr by Alexa-488 staining based confocal fluorescence microscopic analysis; type: cell-based
[9] = test system: NCI-H1581; assay: Binding affinity to FGFR1c in human NCI-H1581 cells assessed as increase in green fluorescence signal incubated for 1 hr by Alexa-488 staining based confocal fluorescence microscopic analysis; type: cell-based
[10] = test system: L6; assay: Binding affinity to human full-length wild type FGFR1c stably expressed in rat L6 cells assessed as increase in fluorescence signal by antibody recruiting based flow cytometry; type: cell-based
[11] = test system: NCI-H1581; assay: Binding affinity to FGFR1c in human NCI-H1581 cells assessed as increase in fluorescence signal by antibody recruiting based flow cytometry; type: cell-based
[12] = test system: L6; assay: Binding affinity to human full-length wild type FGFR1c stably expressed in rat L6 cells assessed as fluorescence intensity at 10 uM by antibody recruiting based flow cytometry; type: cell-based
[13] = test system: NCI-H1581; assay: Binding affinity to FGFR1c in human NCI-H1581 cells assessed as fluorescence intensity at 10 uM by antibody recruiting based flow cytometry; type: cell-based
[14] = test system: L6; assay: Binding affinity to human full-length wild type FGFR1c stably expressed in rat L6 cells assessed as fold change in fluorescence intensity at 10 uM by antibody recruiting based flow cytometry relative to Pep1; type: cell-based
[15] = test system: NCI-H1581; assay: Binding affinity to FGFR1c in human NCI-H1581 cells assessed as fold change in fluorescence intensity at 10 uM by antibody recruiting based flow cytometry relative to Pep1; type: cell-based
[16] = test system: L6; assay: Induction of cell lysis in rat L6 cells stably expressing human full-length FGFR1c at 1 uM incubated for 1 hr by complement dependent cytotoxicity based CCK-8 assay relative to control; type: functional
[17] = test system: NCI-H1581; assay: Induction of cell lysis in human NCI-H1581 cells at 1 uM incubated for 1 hr by complement dependent cytotoxicity based CCK-8 assay relative to control; type: functional
[18] = test system: L6; assay: Induction of cell lysis in rat L6 cells at 1 uM incubated for 1 hr by complement dependent cytotoxicity based CCK-8 assay relative to control; type: functional
[19] = test system: L6; assay: Binding affinity to human full-length wild type FGFR1c stably expressed in rat L6 cells assessed as increase in green fluorescence signal at 2 uM by DAPI staining based confocal […] microscopic analysis; type: cell-based
[20] = Half life in immunized Sprague-Dawley rat at 1.5 mg/kg,SC administration measured upto 24 hrs by fluorescence based microplate reader assay; type: ADME, organism-based; details: in vivo
[21] = Tmax in immunized Sprague-Dawley rat at 1.5 mg/kg,SC administration measured upto 24 hrs by fluorescence based microplate reader assay; type: ADME, organism-based; details: in vivo
[22] = Cmax in immunized Sprague-Dawley rat at 1.5 mg/kg,SC administration measured upto 24 hrs by fluorescence based microplate reader assay; type: ADME, organism-based; details: in vivo
[23] = AUC in immunized Sprague-Dawley rat at 1.5 mg/kg,SC administration measured upto 24 hrs by fluorescence based microplate reader assay; type: ADME, organism-based; details: in vivo
[24] = test system: L6; assay: Binding affinity to FGFR1c in rat L6 cells assessed as increase in green fluorescence signal at 2 uM by DAPI staining based confocal […] microscopic analysis; type: cell-based
[25] = test system: L6; assay: Induction of apoptosis in FGF2-induced rat L6 cells stably expressing human full-length FGFR1c assessed as upregulation of cleaved caspase-3 expression incubated for 24 hrs by Western blotting analysis; type: functional, cell-based
[26] = test system: L6; assay: Induction of apoptosis in FGF2-induced rat L6 cells stably expressing human full-length FGFR1c assessed as upregulation of cleaved PARP expression incubated for 24 hrs by Western blotting analysis; type: functional, cell-based
[27] = test system: NCI-H1581; assay: Antitumor activity against human NCI-H1581 cells xenografted BALB/c mouse model assessed as inhibition of tumor growth at 20 mg/kg,SC administrated once daily for 12 days relative to control; type: functional; details: NCI-H1581, 288 h, time 12 day

Molecule | Kd [1] | Activity [2] | inhibition at 100 µM [3] | Activity [4] | Activity [5] | Activity [6] | Activity [7] | Activity [8] | Activity [9] | Activity [10] | Activity [11] | Flu intensity [12] | Flu intensity [13] | fold change (FC) [14] | fold change (FC) [15] | Activity [16] | Activity [17] | Activity [18] | Activity [19] | further results
CC(C)C[C@H](NC(=O)[C@H](C)NC(=O)[C@@H](NC(=O)[C@H](Cc1ccc(O)cc1)NC(=O)[C@H](Cc1c[nH]c2ccccc12)NC(=O)[C@H](CO)NC(=O)[C@H](CO)NC(=O)[C@H](Cc1ccc(O)cc1)NC(=O)[C@H](CCCCN)NC(=O)[C@H](CCCNC(=N)N)NC(=O)[C@H](CO)NC(=O)[C@H](CCCNC(=N)N)NC(=O)[C@@H](N)Cc1ccc(O)cc1)C(C)C)C(=O)N[C@@H](CCCCN)C(=O)N[C@@H](CCCNC(=N)N)C(=O)N[C@@H](CC(C)C)C(=O)N1CCC[C@H]1C(=O)N[C@@H](CCC(=O)O)C(=O)N[C@H](C(=O)NCC(=O)NCC(=O)NCC(=O)NCCOc1ccc([N+](=O)[O-])cc1[N+](=O)[O-])[C@@H](C)O (H-YRSRKYSSWYVALKRLPETGGG-X3) | 5.95 µM | Dose-Dependent Effect | 100% | Active | Active | Active | inactive | Active | Active | Dose-Dependent Effect | Dose-Dependent Effect | 1.6 10^4No_unit | 3.5 10^3No_unit | 180 | 22.4 | 29.3% | 35.8% | inactive | – | –
CC(C)C[C@H](NC(=O)[C@H](CO)NC(=O)[C@H](C)NC(=O)[C@H](Cc1c[nH]c2ccccc12)NC(=O)[C@H](CCCCN)NC(=O)[C@H](CCCCN)NC(=O)[C@H](CCCNC(=N)N)NC(=O)[C@@H](NC(=O)[C@H](CO)NC(=O)[C@H](CCCNC(=N)N)NC(=O)[C@H](CCCNC(=N)N)NC(=O)CCCCCNC(=S)Nc1ccc2c(c1)C(=O)OC21c2ccc(O)cc2Oc2cc(O)ccc21)C(C)C)C(=O)N[C@@H](Cc1ccc(O)cc1)C(=O)N[C@@H](Cc1ccc(O)cc1)C(=O)N[C@@H](CO)C(=O)N[C@@H](Cc1ccc(O)cc1)C(N)=O ({FITC-Ahx}-RRSVRKKWASLYYSY-NH2) | – | – | – | – | – | – | – | – | – | – | – | – | – | – | – | – | – | – | inactive | –
CC(C)C[C@H](NC(=O)[C@H](C)NC(=O)[C@@H](NC(=O)[C@H](Cc1ccc(O)cc1)NC(=O)[C@H](Cc1c[nH]c2ccccc12)NC(=O)[C@H](CO)NC(=O)[C@H](CO)NC(=O)[C@H](Cc1ccc(O)cc1)NC(=O)[C@H](CCCCN)NC(=O)[C@H](CCCNC(=N)N)NC(=O)[C@H](CO)NC(=O)[C@H](CCCNC(=N)N)NC(=O)[C@@H](N)Cc1ccc(O)cc1)C(C)C)C(=O)N[C@@H](CCCCN)C(=O)N[C@@H](CCCNC(=N)N)C(=O)N[C@@H](CC(C)C)C(=O)N1CCC[C@H]1C(=O)N[C@@H](CCC(=O)O)C(=O)N[C@H](C(=O)NCC(=O)NCC(=O)NCC(=O)NCCOCCOCCOc1ccc([N+](=O)[O-])cc1[N+](=O)[O-])[C@@H](C)O (H-YRSRKYSSWYVALKRLPETGGG-X2) | 5.37 µM | Dose-Dependent Effect | 100% | Active | Active | Active | inactive | Active | Active | Dose-Dependent Effect | Dose-Dependent Effect | 0.3 10^4No_unit | 0.5 10^3No_unit | 33.4 | 3.6 | 25.9% | 31.7% | inactive | – | –
H-YRSRKYSSWYVALKRLPET-NH2 | 1.6 µM | Dose-Dependent Effect | 100% | – | – | – | – | – | – | – | – | – | – | – | – | – | – | – | Active | half-life [20]: 2.12 h; Tmax [21]: 0.58 h; Cmax [22]: 205 ng/mL; AUC at 24 h [23]: 711 ng·h/mL; Activity [24]: inactive; Activity [25]: Dose-Dependent Effect; Activity [26]: Dose-Dependent Effect; inhibition in vivo at 20 mg/kg [27]: 44.2%
CC(C)C[C@H](NC(=O)[C@H](CO)NC(=O)[C@H](C)NC(=O)[C@H](Cc1c[nH]c2ccccc12)NC(=O)[C@H](CCCCN)NC(=O)[C@H](CCCCN)NC(=O)[C@H](CCCNC(=N)N)NC(=O)[C@@H](NC(=O)[C@H](CO)NC(=O)[C@H](CCCNC(=N)N)NC(=O)[C@@H](N)CCCNC(=N)N)C(C)C)C(=O)N[C@@H](Cc1ccc(O)cc1)C(=O)N[C@@H](Cc1ccc(O)cc1)C(=O)N[C@@H](CO)C(=O)N[C@@H](Cc1ccc(O)cc1)C(=O)N[C@@H](CC(C)C)C(=O)N1CCC[C@H]1C(=O)N[C@@H](CCC(=O)O)C(=O)N[C@H](C(=O)NCC(=O)NCC(=O)NCC(=O)NCCOCCOCCOCCOCCOCCOc1ccc([N+](=O)[O-])cc1[N+](=O)[O-])[C@@H](C)O (H-RRSVRKKWASLYYSYLPETGGG-X1) | – | – | – | – | – | – | – | inactive | – | – | – | – | – | – | – | – | – | – | – | –
